In patent publication US20240269139A1, “COMPOUNDS FOR TARGETED PROTEIN DEGRADATION OF KINASES” (DANA-FARBER CANCER INSTITUTE, INC., priority 2020, published 2024):
Values joined by “and” are separate entries in the source; they are usually repeats but may differ in a detail not shown here. Equal values may be shown once. Read-outs that look alike come from different tables or passages of the source.

What was measured:
Type in all cases: cell-based
[1] = molecular target: T1, protein kinases (human kinome) (Homo sapiens, UniProt O75385); conditions: for logFC: ULK1 (O75385) protein abundance, degrader vs DMSO, down; for logFC ULK1: ULK1 O75385
T1 sequence (O75385 1-1050): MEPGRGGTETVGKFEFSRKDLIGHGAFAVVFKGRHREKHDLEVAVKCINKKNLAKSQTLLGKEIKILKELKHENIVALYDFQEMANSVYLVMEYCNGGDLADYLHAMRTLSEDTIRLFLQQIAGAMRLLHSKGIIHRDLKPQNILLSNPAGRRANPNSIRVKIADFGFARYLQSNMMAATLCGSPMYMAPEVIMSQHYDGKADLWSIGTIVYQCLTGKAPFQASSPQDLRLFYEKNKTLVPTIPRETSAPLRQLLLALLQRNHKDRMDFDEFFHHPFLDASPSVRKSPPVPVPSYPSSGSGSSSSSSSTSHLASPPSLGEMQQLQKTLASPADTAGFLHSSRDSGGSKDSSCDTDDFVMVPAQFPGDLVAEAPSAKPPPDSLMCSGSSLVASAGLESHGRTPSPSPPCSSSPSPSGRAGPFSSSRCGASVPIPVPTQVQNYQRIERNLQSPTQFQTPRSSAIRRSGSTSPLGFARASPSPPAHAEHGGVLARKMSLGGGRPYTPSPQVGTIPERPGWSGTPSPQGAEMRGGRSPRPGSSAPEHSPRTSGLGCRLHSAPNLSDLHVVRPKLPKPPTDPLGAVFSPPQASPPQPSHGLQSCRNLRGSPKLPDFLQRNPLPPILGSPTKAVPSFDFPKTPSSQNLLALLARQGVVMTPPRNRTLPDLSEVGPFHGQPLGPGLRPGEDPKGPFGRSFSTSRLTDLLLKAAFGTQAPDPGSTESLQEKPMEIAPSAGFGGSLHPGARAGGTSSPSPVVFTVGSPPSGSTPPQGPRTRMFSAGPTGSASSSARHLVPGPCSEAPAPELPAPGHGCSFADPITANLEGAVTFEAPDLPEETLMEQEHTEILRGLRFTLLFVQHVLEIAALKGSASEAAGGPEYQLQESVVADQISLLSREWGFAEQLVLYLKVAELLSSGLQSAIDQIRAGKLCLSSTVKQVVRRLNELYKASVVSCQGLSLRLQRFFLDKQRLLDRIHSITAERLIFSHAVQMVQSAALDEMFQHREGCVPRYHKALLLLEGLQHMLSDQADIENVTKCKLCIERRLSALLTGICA

[2] = molecular target: protein kinases (human kinome) (Homo sapiens, UniProt Q00534); conditions: for logFC CDK6: CDK6 (Q00534), direction down; for logFC of CDK6 (Q00534): down
protein kinases (human kinome) (Homo sapiens, UniProt Q00534), sequence (Q00534 whole entry): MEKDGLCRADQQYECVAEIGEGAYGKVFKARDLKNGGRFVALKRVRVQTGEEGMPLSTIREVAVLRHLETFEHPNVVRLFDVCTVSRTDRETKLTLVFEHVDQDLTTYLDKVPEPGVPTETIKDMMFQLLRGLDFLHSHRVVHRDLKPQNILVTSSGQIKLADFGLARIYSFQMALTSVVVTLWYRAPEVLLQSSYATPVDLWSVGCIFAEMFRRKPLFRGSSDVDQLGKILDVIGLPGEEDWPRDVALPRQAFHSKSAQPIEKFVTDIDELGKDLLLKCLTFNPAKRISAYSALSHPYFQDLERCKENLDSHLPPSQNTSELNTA

[3] = system: protein kinases (human kinome); conditions: for kinases the bifunctional compound degrades: as stated for the structure in the embodiments; for Kinase hits: kinases significantly downregulated vs DMSO (fold change cutoff −1.25, P-value<0.01), ≤8 h, 0.1-5 μM degrader, 7 cell lines; for Total no. kinase hits: number of degraded kinases per library compound
[4] = molecular target: protein kinases (human kinome) (Homo sapiens, UniProt P11802)
protein kinases (human kinome) (Homo sapiens, UniProt P11802), sequence (P11802 whole entry): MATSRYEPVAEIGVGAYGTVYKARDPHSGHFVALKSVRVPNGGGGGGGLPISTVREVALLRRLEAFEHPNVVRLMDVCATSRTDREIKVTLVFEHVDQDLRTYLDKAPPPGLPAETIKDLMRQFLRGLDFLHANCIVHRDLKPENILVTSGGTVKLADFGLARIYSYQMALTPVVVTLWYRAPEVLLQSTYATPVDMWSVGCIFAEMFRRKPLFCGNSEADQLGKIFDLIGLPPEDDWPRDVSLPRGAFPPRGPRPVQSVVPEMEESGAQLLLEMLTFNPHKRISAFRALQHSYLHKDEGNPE

[5] = molecular target: protein kinases (human kinome) (Homo sapiens, UniProt P53671); conditions: for logFC LIMK2: LIMK2 (P53671), down; for logFC of LIMK2: LIMK2 P53671
protein kinases (human kinome) (Homo sapiens, UniProt P53671), sequence (P53671 whole entry): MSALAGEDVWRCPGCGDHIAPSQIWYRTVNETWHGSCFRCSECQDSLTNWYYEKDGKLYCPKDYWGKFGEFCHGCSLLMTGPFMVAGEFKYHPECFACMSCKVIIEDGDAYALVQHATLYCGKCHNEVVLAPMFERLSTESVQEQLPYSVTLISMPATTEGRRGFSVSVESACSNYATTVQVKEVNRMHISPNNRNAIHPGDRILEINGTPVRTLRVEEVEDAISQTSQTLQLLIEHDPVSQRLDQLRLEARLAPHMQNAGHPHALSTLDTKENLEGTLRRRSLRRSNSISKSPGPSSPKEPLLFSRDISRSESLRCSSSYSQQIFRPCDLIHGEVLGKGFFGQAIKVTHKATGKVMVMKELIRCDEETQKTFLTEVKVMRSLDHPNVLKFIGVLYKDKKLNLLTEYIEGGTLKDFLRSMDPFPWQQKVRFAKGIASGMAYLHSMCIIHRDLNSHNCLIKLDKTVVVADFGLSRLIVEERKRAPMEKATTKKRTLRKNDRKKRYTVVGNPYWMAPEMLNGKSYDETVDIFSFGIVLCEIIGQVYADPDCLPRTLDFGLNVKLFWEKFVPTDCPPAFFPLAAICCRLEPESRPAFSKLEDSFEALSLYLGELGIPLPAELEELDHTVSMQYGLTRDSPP

[6] = CAMKK1 (Q8N5S9-2), experiment wp045
[7] = AURKB Q96GD4-5, experiment wp108
[8] = AURKB Q96GD4-5, experiment wp131

## Cc1ncsc1-c1ccc([C@H](C)NC(=O)[C@@H]2C[C@@H](O)CN2C(=O)[C@@H](NC(=O)CCCCCN2CCN(c3ccc(Nc4ncc5scc(-c6cccc(NS(C)(=O)=O)c6)c5n4)cc3)CC2)C(C)(C)C)cc1 [RSS0680, (2S,4R)-1-((S)-3,3-Dimethyl-2-(6-(4-(4-((7-(3-(methylsulfonamido)phenyl)thieno[3,2-d]pyrimidin-2-yl)amino)phenyl)piperazin-1-yl)hexanamido)butanoyl)-4-hydroxy-N—((S)-1-(4-(4-methylthiazol-5yl)phenyl)ethyl)pyrrolidine-2-carboxamide]
[1]
  logFC: −0.4057 and −0.4996
[1]; experiment wp080
  logFC ULK1: −0.4057
[1]; experiment wp117
  logFC ULK1: −0.4996
[2]; experiment wp080
  logFC CDK6: −2.17
[2]; experiment wp117
  logFC CDK6: −2.169
[2]; Experiment wp080
  logFC of CDK6 (Q00534): −2.17
[2]; Experiment wp117
  logFC of CDK6 (Q00534): −2.169
[3]
  kinases the bifunctional compound degrades: AAK1, CDK1, CDK16, CDK2, CDK4, CDK6, EIF2AK4, GAK. LATS1, LIMK2, MAPK6, MAPKAPK5, MARK2, MARK4, MKNK2, NEK9, RPS6KB1, SIK2, SNRK, STK17A, STK17B, STK35, and WEE1
  Kinase hits: AAK1, CDK1, CDK16, CDK2, CDKA, CDK6, EIF2AK4, GAK, LATS1, LIMK2, MAPK6, MAPKAPK5, MARK2, MARK4, MKNK2, NEK9, RPS6KB1, SIK2, SNRK, STK17A, STK17B. STK35, WEE1
  Total no. kinase hits: 26
[3]; experiment wp080
  logFC CDK16 (Q00536-2): −1.002
[3]; experiment wp117
  logFC CDK16 (Q00536-2): −0.9383
[3]; protein HK1 (P19367-3), experiment wp080, down
  logFC HK1: −0.3696
[4]; experiment wp080
  logFC CDK4 (P11802): −1.724
[4]; experiment wp117
  logFC CDK4 (P11802): −1.679
[5]; experiment wp080
  logFC LIMK2: −0.8809
  logFC of LIMK2: −0.8809
[5]; experiment wp117
  logFC LIMK2: −1.109
  logFC of LIMK2: −1.109

## CS(=O)(=O)Nc1cccc(-c2csc3cnc(Nc4ccc(N5CCN(CCOCCOCCOc6cccc7c6C(=O)N(C6CCC(=O)NC6=O)C7=O)CC5)cc4)nc23)c1 (centres unmarked) [RSS0628]
[1]
  logFC: −0.5583
[1]; experiment wp045
  logFC ULK1: −0.5583
[2]; experiment wp045
  logFC CDK6: −1.743
[2]; Experiment wp045
  logFC of CDK6 (Q00534): −1.743
[3]; [6]
  logFC: −0.3412
[3]; Experiment wp045
  logFC of CAMKK1 (Q8N5S9-2): −0.3412
[3]
  kinases the bifunctional compound degrades: AAK1. AURKA, CAMKK1, CDK4, CDK6, LIMK2, NEK9, PTK2B, STK17A, STK17B, ULK1, ULK3, and WEE1
  Kinase hits: AAK1, AURKA, CAMKK1, CDK4, CDK6, LIMK2, NEK9, PTK2B, STK17A, STK17B, ULK1, ULK3, WEE1
  Total no. kinase hits: 13
[4]; experiment wp045
  logFC CDK4 (P11802): −1.422
[5]; experiment wp045
  logFC LIMK2: −0.7182
  logFC of LIMK2: −0.7182

## CS(=O)(=O)Nc1cccc(-c2csc3cnc(Nc4ccc(N5CCN(CCCCCOc6cccc7c6C(=O)N(C6CCC(=O)NC6=O)C7=O)CC5)cc4)nc23)c1 (centres unmarked) [DB0614, N-(3-(2-((4-(4-(5-((2-(2,6-Dioxopiperidin-3-yl)-1,3-dioxoisoindolin-4-yl)oxy)pentyl)piperazin-1-yl)phenyl)amino)thieno[3,2-d]pyrimidin-7-yl)phenyl)methanesulfonamide]
[1]
  logFC: −0.869 and −1.105
[1]; experiment wp045
  logFC ULK1: −0.869
[1]; experiment wp117
  logFC ULK1: −1.105
[2]; experiment wp045
  logFC CDK6: −2.265
[2]; experiment wp117
  logFC CDK6: −2.079
[2]; Experiment wp045
  logFC of CDK6 (Q00534): −2.265
[2]; Experiment wp117
  logFC of CDK6 (Q00534): −2.079
[3]; [6]
  logFC: −0.6487
[3]; Experiment wp045
  logFC of CAMKK1 (Q8N5S9-2): −0.6487
[3]; Experiment wp045, direction down
  logFC MAPK8 (P45983-4): −0.6882
[3]; Experiment wp117
  logFC of MAPK8 (P45983-2): −0.6328
[3]; Experiment wp117, direction down
  logFC MAPK8 (P45983-2): −0.6328
[3]; LCK, accession P06239-3, experiment wp045, direction of change down
  logFC LCK: −0.33
[3]; MAPK8 P45983-4, experiment wp045
  logFC MAPK8: −0.6882
[3]; PTK2B (Q14289-2), experiment wp117, direction down
  logFC: −1.203
[3]; PTK2B, accession Q14289-2, experiment wp117, direction of change down
  logFC PTK2B: −1.203
[3]
  kinases the bifunctional compound degrades: AAK1, AURKA, BMP2K, CAMKK1, CDK16, CDK4, CDK6, EIF2AK2, FER, GAK, LCK, LIMK2, MAP3K11, MAPK8, MAPK9, NEK9, PLK4, PTK2B, SIK2, STK17A, STK17B, ULK1, ULK3, and WEE1
  Kinase hits: AAK1, AURKA, BMP2K, CAMKK1, CDK16, CDK4, CDK6, EIF2AK2, FER, GAK, LCK, LIMK2, MAP3K11, MAPK8, MAPK9, NEK9, PLK4, PTK2B, SIK2, STKI7A, STKI7B, ULK1, ULK3, WEE1
  Total no. kinase hits: 24
[3]; experiment wp045, direction of change down
  logFC LCK (P06239-3): −0.33
[3]; experiment wp117
  logFC CDK16 (Q00536-2): −0.5528
[4]; experiment wp045
  logFC CDK4 (P11802): −1.539
[4]; experiment wp117
  logFC CDK4 (P11802): −1.539
[5]; experiment wp045
  logFC LIMK2: −0.437
  logFC of LIMK2: −0.437

## Cc1ncsc1-c1ccc([C@H](C)NC(=O)[C@@H]2C[C@@H](O)CN2C(=O)[C@@H](NC(=O)CCOCCOCCN2CCN(c3ccc(Nc4ncc(Cl)c(Nc5ccccc5S(=O)(=O)C(C)C)n4)cc3)CC2)C(C)(C)C)cc1 [FMF.06.098.1]
[1]
  logFC: −0.688 and −0.9629
[1]; experiment wp108
  logFC ULK1: −0.688
[1]; experiment wp131
  logFC ULK1: −0.9629
[2]; experiment wp108
  logFC CDK6: −0.3588
[2]; experiment wp131
  logFC CDK6: −0.5377
[2]; Experiment wp108
  logFC of CDK6 (Q00534): −0.3588
[2]; Experiment wp131
  logFC of CDK6 (Q00534): −0.5377
[3]; [7]
  logFC: −0.5246
  logFC AURKB: −0.5246
[3]; [8]
  logFC: −0.6726
  logFC AURKB: −0.6726
[3]; Accession O60566-3, experiment wp108, direction down
  logFC BUB1B: −0.4426
[3]; Accession O60566-3, experiment wp131, direction down
  logFC BUB1B: −0.4232
[3]; Accession P48730-2, experiment wp108, direction down
  logFC CSNK1D: −0.3812
[3]; Accession P48730-2, experiment wp114, direction down
  logFC CSNK1D: −0.4039
[3]; BUB1B (O60566-3), experiment wp108
  logFC BUB1B: −0.4426
[3]; BUB1B (O60566-3), experiment wp131
  logFC BUB1B: −0.4232
[3]; CDK9 (P50750-2) protein abundance, degrader vs DMSO, down
  logFC: −0.7233 and −0.6791
[3]; CSNK1D P48730-2, experiment wp108
  logFC CSNK1D: −0.3812
[3]; CSNK1D P48730-2, experiment wp114
  logFC CSNK1D: −0.4039
[3]; Experiment wp108
  logFC CDK9 (P50750-2): −0.7233
[3]; Experiment wp131, direction down
  logFC PRKAA1 (Q13131-2): −0.3695
[3]; FER (P16591-3), experiment wp114, direction down
  logFC: −0.3986
[3]; FER P16591-3, experiment wp114
  logFC of FER: −0.3986
[3]; experiment wp108, direction of change down
  logFC FGFR1 (P11362-21): −0.4121
[3]; experiment wp131
  logFC ABL2 (P42684-5): −0.6443
  logFC CDK9 (P50750-2): −0.6791
  logFC PRKAA1 (Q13131-2): −0.3695
  logFC of ABL2 (P42684-5): −0.6443
[3]; protein FGFR1 (P11362-21), experiment wp108, down
  logFC FGFR1: −0.4121
[4]; Experiment wp108
  logFC CDK4 (P11802): −0.8731
[4]; experiment wp114
  logFC CDK4 (P11802): −0.3781
[4]; experiment wp131
  logFC CDK4 (P11802): −1.029
[5]; experiment wp108
  logFC LIMK2: −0.8226
  logFC of LIMK2: −0.8226
[5]; experiment wp114
  logFC LIMK2: −1.629
  logFC of LIMK2: −1.629
[5]; experiment wp131
  logFC LIMK2: −1.077
  logFC of LIMK2: −1.077
